According to PubChem BioAssay (NCI):
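48-hour exposure; five concentrations; linearly interpolated endpoints. TGI denotes the concentration required for complete inhibition of growth.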

Legend:
Experiment in all cases: growth of human tumour cells (NCI), 48 h
OVCAR-8 ovarian = test system: OVCAR-8 ovarian
NCI-H23 lung = test system: NCI-H23 lung
RPMI-8226 leukemia = test system: RPMI-8226 leukemia
MOLT-4 leukemia = test system: MOLT-4 leukemia
SNB-19 CNS = test system: SNB-19 CNS
XF 498 CNS = test system: XF 498 CNS
SW-620 colon = test system: SW-620 colon
HT29 colon = test system: HT29 colon
NCI-H460 lung = test system: NCI-H460 lung
SNB-78 CNS = test system: SNB-78 CNS
SK-MEL-5 melanoma = test system: SK-MEL-5 melanoma
UACC-62 melanoma = test system: UACC-62 melanoma
DMS 273 small cell lung = test system: DMS 273 small cell lung
HOP-92 NSCLC = test system: HOP-92 NSCLC
HOP-62 NSCLC = test system: HOP-62 NSCLC
SF-268 CNS = test system: SF-268 CNS
SK-MEL-28 melanoma = test system: SK-MEL-28 melanoma
KM20L2 colon = test system: KM20L2 colon
SF-295 CNS = test system: SF-295 CNS
ACHN renal = test system: ACHN renal
M14 melanoma = test system: M14 melanoma
M19-MEL melanoma = test system: M19-MEL melanoma
LXFL 529 NSCLC = test system: LXFL 529 NSCLC
COLO 205 colon = test system: COLO 205 colon
A549 NSCLC = test system: A549 NSCLC
CCRF-CEM leukemia = test system: CCRF-CEM leukemia
U251 CNS = test system: U251 CNS
OVCAR-3 ovarian = test system: OVCAR-3 ovarian
TK-10 renal = test system: TK-10 renal
RXF 393 renal = test system: RXF 393 renal
HCC-2998 colon = test system: HCC-2998 colon
UO-31 renal = test system: UO-31 renal
EKVX NSCLC = test system: EKVX NSCLC
SNB-75 CNS = test system: SNB-75 CNS
MALME-3M melanoma = test system: MALME-3M melanoma
HCT-116 colon = test system: HCT-116 colon
KM12 colon = test system: KM12 colon
NCI-H522 lung = test system: NCI-H522 lung
OVCAR-5 ovarian = test system: OVCAR-5 ovarian
DLD-1 colon = test system: DLD-1 colon
SK-MEL-2 melanoma = test system: SK-MEL-2 melanoma
HL-60(TB) leukemia = test system: HL-60(TB) leukemia
K-562 leukemia = test system: K-562 leukemia
786-0 renal = test system: 786-0 renal
HCT-15 colon = test system: HCT-15 colon
OVCAR-4 ovarian = test system: OVCAR-4 ovarian
IGROV1 ovarian = test system: IGROV1 ovarian
UACC-257 melanoma = test system: UACC-257 melanoma
DMS 114 small cell lung = test system: DMS 114 small cell lung
SN12C renal = test system: SN12C renal
SF-539 CNS = test system: SF-539 CNS
HS 578T breast = test system: HS 578T breast
MDA-MB-231 breast = test system: MDA-MB-231 breast
SK-OV-3 ovarian = test system: SK-OV-3 ovarian
MDA-N = test system: MDA-N
MDA-MB-435 = test system: MDA-MB-435
SR leukemia = test system: SR leukemia
NCI-H226 lung = test system: NCI-H226 lung
DU-145 prostate = test system: DU-145 prostate
A498 renal = test system: A498 renal
BT-549 breast = test system: BT-549 breast
PC-3 prostate = test system: PC-3 prostate
LOX IMVI melanoma = test system: LOX IMVI melanoma
T-47D breast = test system: T-47D breast
CAKI-1 renal = test system: CAKI-1 renal
MCF7 breast = test system: MCF7 breast
NCI/ADR-RES ovarian = test system: NCI/ADR-RES ovarian

COC(=O)C1=C(C(=O)OC)C23C=CC=CC24C(C(=O)OC)=C(C(=O)OC)C4C1C3 (centres undefined)
TGI (OVCAR-8 ovarian): > 100 µM | TGI (NCI-H23 lung): > 100 µM | TGI (RPMI-8226 leukemia): > 100 µM | TGI (MOLT-4 leukemia): > 100 µM | TGI (SNB-19 CNS): > 100 µM | TGI (XF 498 CNS): > 100 µM | TGI (SW-620 colon): > 100 µM | TGI (HT29 colon): > 100 µM | TGI (NCI-H460 lung): > 100 µM | TGI (SNB-78 CNS): > 100 µM | TGI (SK-MEL-5 melanoma): > 100 µM | TGI (UACC-62 melanoma): > 100 µM | TGI (DMS 273 small cell lung): > 100 µM | TGI (HOP-92 NSCLC): > 100 µM | TGI (HOP-62 NSCLC): > 100 µM | TGI (SF-268 CNS): > 100 µM | TGI (SK-MEL-28 melanoma): > 100 µM | TGI (KM20L2 colon): > 100 µM | TGI (SF-295 CNS): > 100 µM | TGI (ACHN renal): > 100 µM | TGI (M14 melanoma): > 100 µM | TGI (M19-MEL melanoma): > 100 µM | TGI (LXFL 529 NSCLC): > 100 µM | TGI (COLO 205 colon): > 100 µM | TGI (A549 NSCLC): > 100 µM | TGI (CCRF-CEM leukemia): > 100 µM | TGI (U251 CNS): > 100 µM | TGI (OVCAR-3 ovarian): > 100 µM | TGI (TK-10 renal): > 100 µM | TGI (RXF 393 renal): > 100 µM | TGI (HCC-2998 colon): > 100 µM | TGI (UO-31 renal): > 100 µM | TGI (EKVX NSCLC): > 100 µM | TGI (SNB-75 CNS): 9.08 µM | TGI (MALME-3M melanoma): > 100 µM | TGI (HCT-116 colon): > 100 µM | TGI (KM12 colon): > 100 µM | TGI (NCI-H522 lung): > 100 µM | TGI (OVCAR-5 ovarian): > 100 µM | TGI (DLD-1 colon): > 100 µM | TGI (SK-MEL-2 melanoma): > 100 µM | TGI (HL-60(TB) leukemia): > 100 µM | TGI (K-562 leukemia): > 100 µM | TGI (786-0 renal): > 100 µM | TGI (HCT-15 colon): > 100 µM | TGI (OVCAR-4 ovarian): > 100 µM | TGI (IGROV1 ovarian): > 100 µM | TGI (UACC-257 melanoma): > 100 µM | TGI (DMS 114 small cell lung): > 100 µM | TGI (SN12C renal): > 100 µM | TGI (SF-539 CNS): > 100 µM

C=CCN1C(=O)/C(=C/c2ccc(C)cc2)N=C1SC/C=C/C
TGI (HS 578T breast): > 100 µM | TGI (OVCAR-8 ovarian): > 100 µM | TGI (NCI-H23 lung): > 100 µM | TGI (RPMI-8226 leukemia): 36.6 µM | TGI (MOLT-4 leukemia): 37.8 µM | TGI (SNB-19 CNS): > 100 µM | TGI (SW-620 colon): > 100 µM | TGI (HT29 colon): > 100 µM | TGI (NCI-H460 lung): > 100 µM | TGI (MDA-MB-231 breast): > 100 µM | TGI (SK-MEL-5 melanoma): 44.6 µM | TGI (SK-OV-3 ovarian): > 100 µM | TGI (UACC-62 melanoma): > 100 µM | TGI (HOP-92 NSCLC): 90.9 µM | TGI (HOP-62 NSCLC): > 100 µM | TGI (SF-268 CNS): > 100 µM | TGI (MDA-N): > 100 µM | TGI (MDA-MB-435): > 100 µM | TGI (SK-MEL-28 melanoma): > 100 µM | TGI (SF-295 CNS): > 100 µM | TGI (ACHN renal): > 100 µM | TGI (M14 melanoma): > 100 µM | TGI (COLO 205 colon): 90.5 µM | TGI (A549 NSCLC): > 100 µM | TGI (CCRF-CEM leukemia): > 100 µM | TGI (SR leukemia): 42.4 µM | TGI (U251 CNS): 77.6 µM | TGI (OVCAR-3 ovarian): > 100 µM | TGI (TK-10 renal): > 100 µM | TGI (RXF 393 renal): 46.8 µM | TGI (NCI-H226 lung): > 100 µM | TGI (HCC-2998 colon): > 100 µM | TGI (UO-31 renal): > 100 µM | TGI (EKVX NSCLC): > 100 µM | TGI (SNB-75 CNS): 70.1 µM | TGI (DU-145 prostate): > 100 µM | TGI (A498 renal): 84.9 µM | TGI (BT-549 breast): > 100 µM | TGI (MALME-3M melanoma): 93.4 µM | TGI (HCT-116 colon): > 100 µM | TGI (KM12 colon): > 100 µM | TGI (NCI-H522 lung): > 100 µM | TGI (OVCAR-5 ovarian): > 100 µM | TGI (SK-MEL-2 melanoma): 57.7 µM | TGI (PC-3 prostate): > 100 µM | TGI (HL-60(TB) leukemia): 47.9 µM | TGI (K-562 leukemia): 89.4 µM | TGI (786-0 renal): > 100 µM | TGI (HCT-15 colon): > 100 µM | TGI (LOX IMVI melanoma): 44.5 µM | TGI (T-47D breast): 83.3 µM | TGI (OVCAR-4 ovarian): > 100 µM | TGI (IGROV1 ovarian): > 100 µM | TGI (CAKI-1 renal): > 100 µM | TGI (MCF7 breast): > 100 µM | TGI (UACC-257 melanoma): > 100 µM | TGI (NCI/ADR-RES ovarian): > 100 µM | TGI (SN12C renal): > 100 µM | TGI (SF-539 CNS): > 100 µM

N#Cc1c(=O)c2cc([N+](=O)[O-])ccc2n2c1[nH]c1ccccc12
TGI (HS 578T breast): > 74.9 µM | TGI (OVCAR-8 ovarian): > 79.5 µM | TGI (NCI-H23 lung): > 38.4 µM | TGI (RPMI-8226 leukemia): > 100 µM | TGI (MOLT-4 leukemia): > 76.1 µM | TGI (SNB-19 CNS): > 72.9 µM | TGI (SW-620 colon): > 100 µM | TGI (HT29 colon): > 87.9 µM | TGI (NCI-H460 lung): > 89.2 µM | TGI (MDA-MB-231 breast): > 57.4 µM | TGI (SK-MEL-5 melanoma): 28.3 µM | TGI (SK-OV-3 ovarian): > 100 µM | TGI (UACC-62 melanoma): > 54.1 µM | TGI (HOP-92 NSCLC): > 39 µM | TGI (HOP-62 NSCLC): 97.7 µM | TGI (SF-268 CNS): > 100 µM | TGI (MDA-N): > 77.4 µM | TGI (MDA-MB-435): > 79.9 µM | TGI (SK-MEL-28 melanoma): > 64.8 µM | TGI (SF-295 CNS): > 52.2 µM | TGI (ACHN renal): > 93.5 µM | TGI (M14 melanoma): > 64.6 µM | TGI (COLO 205 colon): > 44.4 µM | TGI (A549 NSCLC): > 100 µM | TGI (CCRF-CEM leukemia): > 100 µM | TGI (SR leukemia): 96.6 µM | TGI (U251 CNS): > 92.6 µM | TGI (OVCAR-3 ovarian): > 55.7 µM | TGI (TK-10 renal): > 100 µM | TGI (RXF 393 renal): > 100 µM | TGI (NCI-H226 lung): > 51 µM | TGI (HCC-2998 colon): > 100 µM | TGI (UO-31 renal): > 57.4 µM | TGI (EKVX NSCLC): > 100 µM | TGI (SNB-75 CNS): > 100 µM | TGI (DU-145 prostate): > 100 µM | TGI (A498 renal): > 93.1 µM | TGI (BT-549 breast): > 69.5 µM | TGI (MALME-3M melanoma): 35.4 µM | TGI (HCT-116 colon): > 40.1 µM | TGI (KM12 colon): > 57.2 µM | TGI (NCI-H522 lung): 5.75 µM | TGI (OVCAR-5 ovarian): > 100 µM | TGI (SK-MEL-2 melanoma): > 69.1 µM | TGI (PC-3 prostate): > 100 µM | TGI (HL-60(TB) leukemia): > 100 µM | TGI (K-562 leukemia): > 23.4 µM | TGI (786-0 renal): > 100 µM | TGI (HCT-15 colon): > 61.6 µM | TGI (LOX IMVI melanoma): > 50.4 µM | TGI (T-47D breast): > 72.7 µM | TGI (OVCAR-4 ovarian): > 100 µM | TGI (IGROV1 ovarian): > 83.7 µM | TGI (CAKI-1 renal): > 92 µM | TGI (MCF7 breast): > 86.5 µM | TGI (UACC-257 melanoma): > 72 µM | TGI (NCI/ADR-RES ovarian): > 56.4 µM | TGI (SN12C renal): > 100 µM | TGI (SF-539 CNS): > 100 µM
